Laboratory results as given in publication PMC8910920 (International Journal of Molecular Sciences, 2022).

Experiments:
[1] = target: T1, native TRPM8 channels from rat DRG neurons (Rattus norvegicus, UniProt Q8R455); experiment: Whole-cell voltage-clamp, menthol-activated currents in rat DRG neurons; format: cell-based
T1 construct: native TRPM8 channels from rat DRG neurons; endogenous in cells; host or cells: primary DRG neurons (L4-L6) from 6-8 weeks old Sprague-Dawley rats
Procedure: We also investigated the effect of RGM8-51 on native TRPM8 channels from rat DRG neurons. Whole-cell patch-clamp recordings from small size DRG neurons evidenced menthol (100 µM)-activated inward currents at a holding voltage of −80 mV (Figure 3A). As expected from results obtained in rTRPM8-expressing HEK293 cells, RGM8-51 (1 µM) inhibited menthol-activated currents.
Voltage-activated Na^+ and K^+ currents and TRPM8-mediated currents were recorded in DRG neurons isolated from 6-8 weeks old Sprague-Dawley rats, as previously described. Rats were sacrificed by cervical dislocation followed by decapitation and lumbar segments of the spinal column were removed and placed in a cold Ca^2+, Mg^2+-free Hank’s solution (Sigma-Aldrich, Madrid, Spain). The bone surrounding the spinal cord was removed and the right L4, L5 and L6 DRG were exposed and pulled out. After removing the roots, DRG were chopped in half and incubated for 30 min at 37°C in Dulbecco’s modified Eagle’s Medium-low glucose (DMEM; Sigma-Aldrich) containing 5 mg/mL collagenase XI (Sigma-Aldrich, Madrid, Spain), 100 U/mL penicillin (Sigma-Aldrich), and 0.1 mg/mL streptomycin (Sigma-Aldrich). Then, the cell suspension was washed with DMEM by centrifugation (300 G, 5 min at 4 °C), filtered through a 100 µm mesh to eliminate cell clumps and washed again by centrifugation. […]
Data were sampled at 10 kHz (EPC10 amplifier with PatchMaster 2.53 software, HEKA Electronics, Lambrecht, Germany) and low-pass filtered at 3 kHz for analysis (PatchMaster 2.53 and GraphPad Prism 6.0, Graphpad Software, San Diego, CA, USA). […] Cell capacitance was measured and used to estimate the current density (J, pA/pF).
Data analysis: For the whole-cell patch-clamp experiments, results are expressed as the percentage of remaining activation of the TRPM8 channel. This is calculated by normalizing the ratio (p2/p1) of testing conditions to the ratio (p2/p1) of the control condition. […]

[2] = Partition coefficient (Log D); format: physicochemical
Procedure: These studies were subcontracted to Eurofins-CEREP or Eurofins-PANLABS. Briefly, agonists and antagonist assays were performed in cell cultures overexpressing the corresponding channel (CHO: TRPV1 and TRPA1; HEK293: TRPV3 and ASIC3). In vitro pharmacology, cellular channel functional assays: the compound was prepared in assay buffer to the final concentration, 10 μM. The compound wells, reference agonist and background vehicle controls were prepared in DMSO at 0.3%. […] The reference agonist for each Ion Channel was included at Emax (the concentration where the reference agonist elicited a maximal response). The agonist assay was conducted on fluorimeter instruments where the test compound, vehicle controls, and reference agonist were added to the assay plate after a fluorescence baseline was established. […] For the antagonist assay, the compound was pre-incubated for five minutes at room temperature, and then challenged with the EC80 concentration of the reference agonist after establishment of a fluorescence baseline. […] Binding assay results are expressed as a percent of control specific binding. […] Aqueous solubility (μM) was determined by comparing the peak area of the principal peak in a calibration standard (200 μM) containing organic solvent (methanol/water, 60/40, v/v) with the peak area of the corresponding peak in a buffer sample. […] Permeability was measured in CACO-2 monolayers.

T1 sequence (Q8R455 whole entry): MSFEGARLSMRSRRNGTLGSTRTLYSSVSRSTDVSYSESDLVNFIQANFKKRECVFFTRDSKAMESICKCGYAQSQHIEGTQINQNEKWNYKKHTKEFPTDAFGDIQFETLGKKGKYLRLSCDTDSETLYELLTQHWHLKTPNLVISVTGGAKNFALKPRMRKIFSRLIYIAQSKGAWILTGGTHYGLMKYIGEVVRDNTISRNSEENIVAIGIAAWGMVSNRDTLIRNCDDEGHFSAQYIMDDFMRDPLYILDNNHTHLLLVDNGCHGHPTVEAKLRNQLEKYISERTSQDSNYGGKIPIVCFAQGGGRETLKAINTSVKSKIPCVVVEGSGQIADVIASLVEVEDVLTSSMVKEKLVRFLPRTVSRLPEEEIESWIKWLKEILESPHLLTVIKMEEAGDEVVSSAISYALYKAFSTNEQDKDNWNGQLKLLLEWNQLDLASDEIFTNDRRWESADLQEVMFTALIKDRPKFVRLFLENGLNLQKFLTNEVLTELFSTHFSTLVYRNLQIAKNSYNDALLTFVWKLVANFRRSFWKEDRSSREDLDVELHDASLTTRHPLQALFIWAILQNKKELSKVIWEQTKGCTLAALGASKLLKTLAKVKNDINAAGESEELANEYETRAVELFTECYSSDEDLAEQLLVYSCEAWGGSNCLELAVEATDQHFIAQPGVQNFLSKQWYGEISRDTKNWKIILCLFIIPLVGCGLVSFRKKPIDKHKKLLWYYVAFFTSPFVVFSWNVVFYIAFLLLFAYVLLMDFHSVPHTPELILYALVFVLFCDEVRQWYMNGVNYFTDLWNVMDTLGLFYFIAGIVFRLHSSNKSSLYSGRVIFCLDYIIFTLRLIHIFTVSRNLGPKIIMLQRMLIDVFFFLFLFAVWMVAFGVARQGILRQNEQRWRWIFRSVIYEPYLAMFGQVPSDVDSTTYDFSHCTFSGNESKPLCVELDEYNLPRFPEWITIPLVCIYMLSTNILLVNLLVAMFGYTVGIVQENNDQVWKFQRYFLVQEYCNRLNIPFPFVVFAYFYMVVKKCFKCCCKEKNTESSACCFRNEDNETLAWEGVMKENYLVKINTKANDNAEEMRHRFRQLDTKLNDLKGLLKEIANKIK

Structure (SMILES): C[C@@H]1C(=O)N(C[C@H](Cc2ccccc2)N(Cc2ccccc2)Cc2ccccc2)[C@]1(Cc1ccccc1)C(=O)OC(C)(C)C [RGM8-51, 4(S)-Benzyl-3S-methyl-4-(tert-butoxy)carbonyl-1-[(2′S-dibenzylamino-3′-phenyl)prop-1′-yl]-2-oxoazetidine]
- peak current density of menthol-activated current after compound ([1]; 1 µM, menthol 100 µM, holding −80 mV): 0.51 ± 0.09 pA/pF
- inhibition at 1 µM ([1]; DRG neuron, 1 µM, menthol 100 µM, holding −80 mV, n = 8 cells, read-out: Mean peak current inhibition of menthol-activated currents): 65 ± 4.67%
- effect on baseline current at -80 mV ([1]; compound on its own): did not modify on its own the baseline current
- Log D [2]: 5.7
- logD ([2]; organic phase/aqueous buffer partition): 5.77
